Each compound was assayed on M-NFS-60 cells (assay: M-NFS-60 cell in vitro assay (CCK, 48 h, M-CSF factor medium)). Conditions: M-NFS-60 cells; read-out: M-NFS-60cellassay IC50.
Assay type: cell-based
In short: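 Mouse M-NFS-60 cells (2000/well) in RPMI-1640 with 10% serum and M-CSF (25 ng/ml) were pre-incubated 4 h, then exposed to DMSO-diluted compound gradients for 48 h at 5% CO2. Viability read by CCK, 2 h, OD 450 nm; IC50 from curve fitting.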

`CN(c1cnc2cn(C)nc2c1)[C@H]1CCc2c(C(=O)Nc3ccc4c(c3)OC(F)(F)O4)cccc21` [Compound 80u] and `COc1cc(NC(=O)c2cccc3c2CC[C@@H]3N(C)c2cnc3cn(C)nc3c2)ccc1F` [Compound 80v] cannot be ordered by IC50: under 50 nM for the first, under 50 nM for the second.

Compared with `CN1CCc2nc(NC(=O)c3cccc4c3CC[C@@H]4N(C)c3cnc4cnn(C)c4c3)sc2C1` [Compound 80w], `Cc1ccc(F)c(NC(=O)c2cccc3c2CC[C@@H]3N(C)c2cnc3cnn(C)c3c2)c1` [Compound 80y] is lower in IC50: 50 to 200 nM for the first, under 50 nM for the second. The second is the more potent here.

First: COc1cccc(NC(=O)c2cccc3c2CC[C@@H]3N(C)c2cnc3cnn(C)c3c2)c1F [Compound 80x]
Second: CN(c1cnc2cnn(C)c2c1)[C@H]1CCc2c(Nc3cc(C(C)(C)C)on3)cccc21 [Compound 94, (S)—N^4-(5-(tert-butyl)isoxazol-3-yl)-N^1-methyl-N^1-(1-methyl-1H-pyrazolo[4,3-b]pyridin-6-yl)-2,3-dihydro-1H-indene-1,4-diamine]
The IC50 of the first is lower: 50 to 200 nM for the first, 200 to 500 nM for the second. The first is the more potent here.

First: Cn1cc2ncc(N[C@H]3CCc4c(NC(=O)c5cccc(C6CC6)c5)cccc43)cc2n1 [Compound 81, (S)-3-cyclopropyl-N-(1-((2-methyl-2H-pyrazolo[4,3-b]pyridin-6-yl)amino)-2,3-dihydro-1H-inden-4-yl)benzamide]
Second: Cn1cc2ncc(N[C@H]3CCc4c(CNc5cccc(C6CC6)c5)cccc43)cc2n1 [Compound 96a]
The IC50 of the first is lower: under 50 nM for the first, 50 to 200 nM for the second. The first is the more potent here.

`Cc1cccc(C(=O)Nc2cccc3c2CC[C@@H]3Nc2cnc3cn(C)nc3c2)c1F` [Compound 82, (S)-2-fluoro-3-methyl-N-(1-((2-methyl-2H-pyrazolo[4,3-b]pyridin-6-yl)amino)-2,3-dihydro-1H-inden-4-yl)benzamide] and `Cc1cccc(C(=O)Nc2ccc(F)c3c2CC[C@@H]3Nc2cnc3cn(C)nc3c2)c1F` [Compound 83, (S)-2-fluoro-N-(7-fluoro-1-((2-methyl-2H-pyrazolo[4,3-b]pyridin-6-yl)amino)-2,3-dihydro-1H-inden-4-yl)-3-methylbenzamide] cannot be ordered by IC50: under 50 nM for the first, under 50 nM for the second.

First: Cc1cccc(NC(=O)c2ccc(F)c3c2CC[C@@H]3Nc2cnc3cn(C)nc3c2)c1F [Compound 84, (S)-7-fluoro-N-(2-fluoro-3-methylphenyl)-1-((2-methyl-2H-pyrazolo[4,3-b]pyridin-6-yl)amino)-2,3-dihydro-1H-indene-4-carboxamide]
Second: Cc1cccc(NCc2cccc3c2CC[C@@H]3Nc2cnc3cn(C)nc3c2)c1 [Compound 96b]
The IC50 of the first is lower: under 50 nM for the first, 50 to 200 nM for the second. The first is the more potent here.

`Cn1ncc2ncc(O[C@H]3CCc4c(C(=O)Nc5cccc(C6CC6)c5)ccc(F)c43)cc21` [Compound 85, (S)—N-(3-cyclopropylphenyl)-7-fluoro-1-((1-methyl-1H-pyrazolo[4,3-b]pyridin-6-yl)oxy)-2,3-dihydro-1H-indene-4-carboxamide] and `Cn1ncc2ncc(N[C@H]3CCc4c(C(=O)Nc5cccc(C6CC6)c5)cccc43)nc21` [Compound 88, (S)—N-(3-cyclopropylphenyl)-1-((1-methyl-1H-pyrazolo[3,4-b]pyrazin-6-yl)amino)-2,3-dihydro-1H-indene-4-carboxamide] cannot be ordered by IC50: under 50 nM for the first, under 50 nM for the second.

`Cn1ncc2ncc(N[C@H]3CCc4c(Nc5cc(C(C)(C)C(F)(F)F)on5)cccc43)nc21` [Compound 87, (S)—N′-(1-methyl-1H-pyrazolo[3,4-b]pyrazin-6-yl)-N^4-(5-(1,1,1-trifluoro-2-methylpropan-2-yl)isoxazol-3-yl)-2,3-dihydro-1H-indene-1,4-diamine] and `Cn1cc2ncc(N[C@H]3CCc4c(Nc5cc(C(C)(C)C(F)(F)F)on5)cccc43)cc2n1` [Compound 91j] cannot be ordered by IC50: under 50 nM for the first, under 50 nM for the second.

`Cn1cc2ncc(N[C@H]3CCc4c(Nc5cc(C(C)(C)C)on5)cccc43)cc2n1` [Compound 90, (S)—N^4-(5-(tert-butyl)isoxazol-3-yl)-N^1-(2-methyl-2H-pyrazolo[4,3-b]pyridin-6-yl)-2,3-dihydro-1H-indene-1,4-diamine] and `Cn1ncc2ncc(N[C@H]3CCc4c(Nc5cc(C(C)(C)C)on5)cccc43)cc21` [Compound 91a] cannot be ordered by IC50: under 50 nM for the first, under 50 nM for the second.

First: Cn1ncc2ncc(N[C@H]3CCc4c(Nc5nc(C(C)(C)C)cs5)cccc43)cc21 [Compound 91b]
Second: Cn1ncc2ncc(N[C@H]3CCc4c(Nc5ncc(C(C)(C)C)s5)cccc43)cc21 [Compound 91f]
The IC50 of the first is higher: 50 to 200 nM for the first, under 50 nM for the second. The second is the more potent here.

`COCC(C)(C)c1cc(Nc2cccc3c2CC[C@@H]3Nc2cnc3cnn(C)c3c2)no1` [Compound 91c] and `Cn1ncc2ncc(N[C@H]3CCc4c(Nc5cc(C(C)(C)CO)on5)cccc43)cc21` [Compound 91d] cannot be ordered by IC50: under 50 nM for the first, under 50 nM for the second.

`CC(C)c1cc(Nc2cccc3c2CC[C@@H]3Nc2cnc3cnn(C)c3c2)no1` [Compound 91e] and `Cn1ncc2ncc(N[C@H]3CCc4c(Nc5noc(C(C)(C)C)n5)cccc43)cc21` [Compound 93a] cannot be ordered by IC50: under 50 nM for the first, under 50 nM for the second.

First: Cn1ncc2ncc(N[C@H]3CCc4c(Nc5nc(C(C)(C)C)co5)cccc43)cc21 [Compound 91g]
Second: Cn1cc2ncc(N[C@H]3CCc4c(Nc5nc(C(C)(C)C)cs5)cccc43)cc2n1 [Compound 91i]
The IC50 of the first is higher: 50 to 200 nM for the first, under 50 nM for the second.

`Cn1cc2ncc(N[C@H]3CCc4c(Nc5ncc(C(C)(C)C)s5)cccc43)cc2n1` [Compound 91h] and `Cn1cc2ncc(N[C@H]3CCc4c(Nc5noc(C(C)(C)C)n5)cccc43)cc2n1` [Compound 93i] cannot be ordered by IC50: under 50 nM for the first, under 50 nM for the second.

`Cn1cc2ncc(N[C@H]3CCc4c(Nc5cc(C6(C)CCC6)on5)cccc43)cc2n1` [Compound 91k] and `Cn1cc2ncc(N[C@H]3CCc4c(Nc5cc(C6(C)CCCC6)on5)cccc43)cc2n1` [Compound 91l] cannot be ordered by IC50: under 50 nM for the first, under 50 nM for the second.

`Cn1cc2ncc(N[C@H]3CCc4c(Nc5cc(C6(C(F)(F)F)CC6)on5)cccc43)cc2n1` [Compound 91m] and `Cn1cc2ncc(N[C@H]3CCc4c(Nc5cc(C6(C(F)(F)F)CCC6)on5)cccc43)cc2n1` [Compound 91n] cannot be ordered by IC50: under 50 nM for the first, under 50 nM for the second.

`Cn1cc2ncc(N[C@H]3CCc4c(Nc5cc(C6(C(F)(F)F)CCCC6)on5)cccc43)cc2n1` [Compound 91o] and `Cn1cc2ncc(N[C@H]3CCc4c(Nc5noc(C6(C(F)(F)F)CCCC6)n5)cccc43)cc2n1` [Compound 93l] cannot be ordered by IC50: under 50 nM for the first, under 50 nM for the second.

`Cn1cc2ncc(N[C@H]3CCc4c(Nc5cc(C67CC(C6)C7)on5)cccc43)cc2n1` [Compound 91r] and `Cn1cc2ncc(N[C@H]3CCc4c(Nc5cc(C67CC(F)(C6)C7)on5)cccc43)cc2n1` [Compound 91s] cannot be ordered by IC50: under 50 nM for the first, under 50 nM for the second.

First: Cn1cc2ncc(N[C@H]3CCc4c(Nc5noc(C6(C)COC6)n5)cccc43)cc2n1 [Compound 92, (S)—N^1-(2-methyl-2H-pyrazolo[4,3-b]pyridin-6-yl)-N^4-(5-(3-methyloxetan-3-7)-1,2,4-oxadiazol-3-yl)-2,3-dihydro-1H-indene-1,4-d]
Second: Cn1cc2ncc(N[C@H]3CCc4c(Nc5noc(C6(C)CC6)n5)cccc43)cc2n1 [Compound 93d]
The IC50 of the first is higher: over 500 nM for the first, under 50 nM for the second. The second is the more potent here.

`CN1CCC[C@@H]1c1nc(Nc2cccc3c2CC[C@@H]3Nc2cnc3cn(C)nc3c2)no1` [Compound 93b] and `CN1CCC[C@H]1c1nc(Nc2cccc3c2CC[C@@H]3Nc2cnc3cn(C)nc3c2)no1` [Compound 93c] fall in the same range of IC50: 50 to 200 nM for the first, 50 to 200 nM for the second.

First: Cn1cc2ncc(N[C@H]3CCc4c(Nc5noc(C6(CO)CC6)n5)cccc43)cc2n1 [Compound 93e]
Second: Cn1cc2ncc(N[C@H]3CCc4c(Nc5noc(C6(C)CCC6)n5)cccc43)cc2n1 [Compound 93n]
The IC50 of the first is higher: 50 to 200 nM for the first, under 50 nM for the second. The second is the more potent here.

Going from `Cn1cc2ncc(N[C@H]3CCc4c(Nc5noc(C(C)(C)C(F)(F)F)n5)cccc43)cc2n1` [Compound 93f] to `Cn1cc2ncc(N[C@H]3CCc4c(Nc5noc(C(F)(F)F)n5)cccc43)cc2n1` [Compound 93p], the IC50 rises from under 50 nM to over 500 nM. The first is the more potent here.

`Cn1cc2ncc(N[C@H]3CCc4c(Nc5noc(C6(C(F)(F)F)CC6)n5)cccc43)cc2n1` [Compound 93g] and `Cn1cc2ncc(N[C@H]3CCc4c(Nc5noc(C6(C(F)(F)F)CCC6)n5)cccc43)cc2n1` [Compound 93h] cannot be ordered by IC50: under 50 nM for the first, under 50 nM for the second.

First: Cn1cc2ncc(N[C@H]3CCc4c(Nc5noc(C6CC6)n5)cccc43)cc2n1 [Compound 93j]
Second: Cn1cc2ncc(N[C@H]3CCc4c(Nc5noc(C6CCCC6)n5)cccc43)cc2n1 [Compound 93k]
The IC50 of the first is higher: 200 to 500 nM for the first, under 50 nM for the second. The second is the more potent here.

`Cn1cc2ncc(N[C@H]3CCc4c(Nc5noc(C6(C)CCCC6)n5)cccc43)cc2n1` [Compound 93m] and `Cn1cc2ncc(N[C@H]3CCc4c(Nc5noc(C67CC(C6)C7)n5)cccc43)cc2n1` [Compound 93q] cannot be ordered by IC50: under 50 nM for the first, under 50 nM for the second.

`Cn1cc2ncc(N[C@H]3CCc4c(Nc5noc(C(C)(C)CF)n5)cccc43)cc2n1` [Compound 93o] and `Cn1cc2ncc(N[C@H]3CCc4c(Nc5noc(C67CC(F)(C6)C7)n5)cccc43)cc2n1` [Compound 93r] cannot be ordered by IC50: under 50 nM for the first, under 50 nM for the second.

First: Cn1ncc2ncc(O[C@H]3CCc4c(Nc5cc(C(C)(C)C)on5)cccc43)cc21 [Compound 95, (S)-5-(tert-butyl)-N-(1-((1-methyl-1H-pyrazolo[4,3-b]pyridin-6-yl)oxy)-2,3-dihydro-1H-inden-4-yl) isoxazol-3-amine]
Second: Cn1cc2ncc(N[C@H]3CCc4c(CNc5cccc(F)c5)cccc43)cc2n1 [Compound 96c]
The IC50 of the first is lower: 200 to 500 nM for the first, over 500 nM for the second. The first is the more potent here.

Going from `Cn1cc2ncc(N[C@H]3CCc4c(CNc5nc(C6CC6)cs5)cccc43)cc2n1` [Compound 96d] to `O=C(Nc1cccc(C2CC2)c1)c1cccc2c1CC[C@@H]2Nc1cnc2cn[nH]c2c1` [Compound 97, (S)-1-((1H-pyrazolo[4,3-b]pyridin-6-yl)amino)-N-(3-cyclopropylphenyl)-2,3-dihydro-1H-indene-4-carboxamide], the IC50 falls from over 500 nM to under 50 nM. The second is the more potent here.
